Measurements taken from ChEMBL document CHEMBL4304832, “Novel Pyrazole-Containing Compounds Active against Mycobacterium tuberculosis” (ACS Med Chem Lett, 2019).
Calls of active or inactive are those of the source. The calls are words filed in the database; no cut-off is given here.

Tests used:
Assay type in all cases: functional, organism-based
[1] = system: Mycobacterium tuberculosis; experiment: Antitubercular activity against Mycobacterium tuberculosis H37Rv harboring mmpL3 V240A mutant at 12.5 uM incubated for 4 weeks by resazurin dye based fluorescence assay
[2] = system: Mycobacterium tuberculosis; experiment: Antitubercular activity against Mycobacterium tuberculosis H37Rv harboring ppsB L1476S mutant at 12.5 uM incubated for 4 weeks by resazurin dye based fluorescence assay
[3] = system: Mycobacterium tuberculosis; experiment: Antitubercular activity against Mycobacterium tuberculosis H37Rv harboring lprM V86V mutant at 25 uM incubated for 4 weeks by resazurin dye based fluorescence assay
[4] = system: Mycobacterium tuberculosis; experiment: Antitubercular activity against Mycobacterium tuberculosis H37Rv harboring mmpL3 P239H mutant at 20 uM incubated for 4 weeks by resazurin dye based fluorescence assay
[5] = system: Mycobacterium tuberculosis; experiment: Antitubercular activity against Mycobacterium tuberculosis H37Rv harboring fadD26 (336 amino acids) insertion mutant at 20 uM incubated for 4 weeks by resazurin dye based fluorescence assay

SMILES | Activity [1] | Activity [2] | Activity [3] | Activity [4] | Activity [5]
COC1CCN(Cc2cc(-c3ccc(C(C)C)cc3)n(-c3ccc(F)cc3)n2)CC1 | Active | Active |  |  | 
CC(C)c1ccc(-c2cc(CN3CCN(c4ccccn4)CC3)nn2C2CCCCC2)cc1 |  |  | Active | Active | Active
